Assay results as given in patent publication US8592421B2, “Cyclic bioisosters of purine system derivatives and a pharmaceutical composition based thereon” (priority 2003, dated 2013).

Key:
[1] = Morphine abstinence model: indicator enzymes ALT, AST, γ-GTP in blood plasma; settings: 20.0 mg/kg intramuscularly three times a day; for γ-GTP in blood plasma, Ci: control 6.261 ± 1.80; for ALT in blood plasma, Ci: control 106.76 ± 111.35; for AST in blood plasma, Ci: control 179.881 ± 11.94
Description: (§1) The experiments were carried out on rats in series of 7 animals on each compound according to the invention. Non-morphinized animal with not administered with compounds according to the invention were used as a control group. […] Then the rats were decapitated, the blood from somnolent arteries was collected in test tubes with solution EDTA as an anticoagulant, centrifuged at 1500 g for 15 minutes at 4° C.
To estimate possible hepatoprotective action of the compounds according to the invention under conditions of development of an oxidizing stress in the liver cells, effect of these compounds on the most important biochemical blood indexes, in particular, on the content in blood plasma of indicator enzyme of aspartateaminotransferase (AST), alanineaminotransferase (ALT), γ-glutamiletranspeptidase (γ-GTP) was investigated. The content of enzymes was estimated by their catalyzing activity in blood plasma.
The activity of AST, ALT and γ-GTP was determined by means of diagnostic sets DiaSys, Germany.

[2] = Morphine abstinence model: nitrites/nitrates NOX− in blood plasma, liver and brain; assay type: in vivo, rats Wistar; settings: 20.0 mg/kg intramuscularly; for Nitrites in liver: control 0.260 ± 0.023; for Nitrites in brain: Cortex of cerebrum: control 4.63 ± 0.29; for Nitrites in brain: Mesencephalon: control 5.66 ± 0.19; for Nitrites in brain: Hypothalamus: control 6.57 ± 0.50; for Nitrites in blood plasma: control 18.30 ± 2.14
Description: as §1
To estimate the intensity of metabolism of nitrogen oxide in rats, quantitative determination of stable metabolites of nitrogen oxide—nitrites and nitrates NOX^− in the blood plasma, supernatanates of the liver and thymus gland, a study was conducted by a spectrometric method, and in the brain supernatanates by a […] method.
The spectrometric method is based the reaction of nitrites with the Griss reagent (a mixture of 2% solution of sulfanilamide and 0.2% N-(1-naphthyl)ethylene diamine. At the first step the nitrite reacts with sulfanilamide with formation of diazonium salt, and then with the second component to form azo dye with an adsorption maximum at 540 nm. For reduction of nitrates into nitrites, a fermentative method was used with bacterial reductase nitrate (Grisham M. B. et al., 1995). The samples of plasma and supernathant of the liver deproteinizated at 100° C. for 5 minutes incubated for 30 minutes at 37° C. in 50.0 mM of HEPES pH 7.4 in the presence of 0.2 unit/ml of Aspergillus reductase nitrate, 5.0 mkM of FAD and 0.1 mM of NAD-Ph. At the end of the reaction lactate dehydrogenase and pyruvate were added for isolation of NAD-Ph interfering with the Griss reaction. Then the Griss reagent was added and after 10-minute incubation the light absorption of the samples was measured at 540 nm. To amount of NOX^− was calculated using sodium nitrate as a standard.
The fluorometric method is based on calculation of the nitrite level by the intensity fluorescence of 2,3-diaminonaphthotriazole, a product of reaction of 2,3-diaminonaphthalene (DAN) and nitrite in an acidic medium (Misko T. R., Schilling R. J., Salvemini D. et al. “A fluorometric assay for the measurement of nitrite of biological samples”. Anal. Biochem., 1993, v. 214, p. 11-16). The brain supernatants deproteinizated at 100° C. were placed in a nitrite regenerating system containing 0.125 unit/ml of nitrate reductases, 25 mkM NADPh and 25 mkM FAD prepared in a 20-mM Tris-HCl buffer with pH 7.6 and incubated for 30 minutes at 37° C. The lactate dehydrogenase/pyruvate system was used for oxidation of the NADPh. Then 316 mkM of the DAN solution in 0.62 M of hydrochloric acids were added and the mixture was incubated for 10 minutes in darkness.
280 mM of NaOH were added for stabilization of the fluorescence of the formed 2,3-diaminonaphthotriazole. The fluorescence intensity was measured in the spectrofluorimeter Hitachi F-3000 at a wavelength of excitation of 365 nm and an emission of 405 nm. The concentration of NOX^− in the brain was calculated by means of a standard solution of sodium nitrate.

[3] = system: plasma hemostasis; experiment: Prothrombin time after intravenous administration; assay type: in vivo, rabbit; settings: for effect on the prothrombin time index: doses of 15.0, 30.0, 60.0 mg/kg
Description: The static parameters of the blood and plasma coagulation (partial activated thromboplastin time, thrombin time, maximum coagulation activity (test for auto coagulation) were determined using the Behnk Electronic coagulometer (Germany). The operating principle of this instrument is based on the fact that the formed blood clot breaks the contacts of the pulse counter in the flask-pin circuit, said pin permanently oscillating in a vertical plane. The moment of formation of the clot is registered by stopping the stop watch hand.
The measurements were effected at a constant temperature of 37° C. maintained by a temperature control unit.
The method of its determination is based on estimation of the coagulation of citrate or oxalic blood plasma, when it is mixed with thromboplastin and a calcium chloride solution. Since under these conditions the time of formation of the clot depends on the content of II, VII, IX and X factors in the investigated plasma sample, now the test is called “thromboplastin time by Quick” or “activity thromboplastin complex”.
Citrate blood containing 1 part of citrate per 9 parts of native blood was centrifuged at 3000 rev/min for 10 minutes to obtain plasma deprived of thrombocytes.
Added into a test tube in a water bath were 0.1 ml of plasma and 0.1 ml of a thromboplastin solution.

[4] = 15.0 mg/kg intravenously, after 15 minutes, control 11.8 ± 0.1
[5] = 15.0 mg/kg intravenously, after 30 minutes, control 11.8 ± 0.1
[6] = 15.0 mg/kg intravenously, after 60 minutes, control 11.8 ± 0.1
[7] = 15.0 mg/kg intravenously, after 120 minutes, control 11.8 ± 0.1
[8] = 30.0 mg/kg intravenously, after 15 minutes, control 11.2 ± 0.1
[9] = 30.0 mg/kg intravenously, after 30 minutes, control 11.2 ± 0.1
[10] = 30.0 mg/kg intravenously, after 60 minutes, control 11.2 ± 0.1
[11] = 30.0 mg/kg intravenously, after 120 minutes, control 11.2 ± 0.1
[12] = 60.0 mg/kg intravenously, after 15 minutes, control 12.0 ± 0.1
[13] = 60.0 mg/kg intravenously, after 30 minutes, control 12.0 ± 0.1
[14] = 60.0 mg/kg intravenously, after 60 minutes, control 12.0 ± 0.1
[15] = 60.0 mg/kg intravenously, after 120 minutes, control 12.0 ± 0.1

SMILES | γ-GTP in blood plasma, Ci ([1]; Control + compound) [mE/l] | ALT in blood plasma, Ci ([1]; Control + compound) [mE/l] | AST in blood plasma, Ci ([1]; Control + compound) [mE/l] | γ-GTP in blood plasma, Ci ([1]; control + Morphine + Compound) [mE/l] | ALT in blood plasma, Ci ([1]; control + Morphine + Compound) [mE/l] | AST in blood plasma, Ci ([1]; control + Morphine + Compound) [mE/l] | Nitrites in liver ([2]; Control + Compound) | Nitrites in brain: Cortex of cerebrum ([2]; Control + Compound) | Nitrites in brain: Mesencephalon ([2]; Control + Compound) | Nitrites in brain: Hypothalamus ([2]; Control + Compound) | Nitrites in blood plasma ([2]; Control + Compound) [mkmol/ml] | Nitrites in liver ([2]; Control + Morphine + compound) | Nitrites in brain: Cortex of cerebrum ([2]; Control + Morphine + compound) | Nitrites in brain: Mesencephalon ([2]; Control + Morphine + compound) | Nitrites in brain: Hypothalamus ([2]; Control + Morphine + compound) | Nitrites in blood plasma ([2]; Control + Morphine + compound) [mkmol/ml] | prothrombin time, T [3, 4] [s] | prothrombin time, T [3, 5] [s] | prothrombin time, T [3, 6] [s] | prothrombin time, T [3, 7] [s] | other results
O=c1[nH][nH]c(=O)c2ncccc12.[Li] [Compound 6, lithium salt of pyrido[2,3-d]-6H-pyridazine-5,8-dione] | 8.27 ± 2.12 | 114.5 ± 1.13 | 176.18 ± 3.26 | 12.52 ± 2.02 | 122.44 ± 2.01 | 198.34 ± 9.32 | 0.245 ± 0.010 nmol/mg of protein | 4.59 ± 0.44 nmol/mg of protein | 7.01 ± 0.82 nmol/mg of protein | 6.94 ± 0.67 nmol/mg of protein | 15.83 ± 1.21 | 0.294 ± 0.02 nmol/mg of protein | 5.12 ± 0.18 nmol/mg of protein | 5.76 ± 0.94 nmol/mg of protein | 6.72 ± 0.94 nmol/mg of protein | 15.86 ± 1.20 |  |  |  |  | 
Nc1cccc2c(=O)[nH][nH]c(=O)c12.[Na] [Compound 15, sodium salt of 5-amino-benzo[d]-3H-pyridazine-1,4-dione] | 7.03 ± 2.82 | 113.48 ± 2.39 | 173.46 ± 5.63 | 10.69 ± 1.84 | 121.08 ± 5.04 | 195.57 ± 18.68 | 0.259 ± 0.019 nmol/mg of protein | 4.31 ± 0.37 nmol/mg of protein | 6.65 ± 0.70 nmol/mg of protein | 6.77 ± 0.83 nmol/mg of protein | 14.39 ± 0.84 | 0.285 ± 0.02 nmol/mg of protein | 4.72 ± 0.37 nmol/mg of protein | 5.50 ± 0.43 nmol/mg of protein | 6.57 ± 0.88 nmol/mg of protein | 13.91 ± 1.91 | 11.5 ± 0.2 | 11.7 ± 0.2 | 11.2 ± 0.2 | 11.5 ± 0.2 | prothrombin time, T [3, 8]: 11.0 ± 0.2 s; prothrombin time, T [3, 9]: 11.2 ± 0.2 s; prothrombin time, T [3, 10]: 11.4 ± 0.2 s; prothrombin time, T [3, 11]: 11.3 ± 0.2 s; prothrombin time, T [3, 12]: 12.0 ± 0.1 s; prothrombin time, T [3, 13]: 12.0 ± 0.1 s; prothrombin time, T [3, 14]: 12.0 ± 0.2 s; prothrombin time, T [3, 15]: 12.0 ± 0.1 s; effect on the prothrombin time index [3]: have no effect on the prothrombin time index
Nc1ccnc2c(=O)n([C@@H]3O[C@H](CO)[C@@H](O)[C@H]3O)[nH]c(=O)c12 [Compound 2, 4-amino-7-(β-D-ribofuranosile)pyrido[2,3-d]-6H-pyridazine-5,8-dione] |  |  |  |  |  |  |  |  |  |  |  |  |  |  |  |  | 11.7 ± 0.2 | 11.5 ± 0.2 | 11.4 ± 0.2 | 11.7 ± 0.1 | prothrombin time, T [3, 8]: 11.1 ± 0.2 s; prothrombin time, T [3, 9]: 11.0 ± 0.1 s; prothrombin time, T [3, 10]: 11.3 ± 0.1 s; prothrombin time, T [3, 11]: 11.2 ± 0.2 s; prothrombin time, T [3, 12]: 12.0 ± 0.1 s; prothrombin time, T [3, 13]: 11.9 ± 0.2 s; prothrombin time, T [3, 14]: 12.1 ± 0.2 s; prothrombin time, T [3, 15]: 11.9 ± 0.1 s; effect on the prothrombin time index [3]: have no effect on the prothrombin time index
O=c1[nH][nH]c(=O)c2nccnc12.[Li] [Compound 25, lithium salt of pyrazine[2,3-d]-6H-pyridazine-5,8-dione] | 7.57 ± 1.93 | 115.27 ± 1.09 | 177.34 ± 6.13 | 11.37 ± 1.54 | 121.96 ± 3.4 | 196.46 ± 15.34 | 0.307 ± 0.012 nmol/mg of protein | 4.47 ± 0.43 nmol/mg of protein | 6.98 ± 1.02 nmol/mg of protein | 6.87 ± 0.80 nmol/mg of protein | 17.10 ± 2.05 | 0.287 ± 0.01 nmol/mg of protein | 4.91 ± 0.32 nmol/mg of protein | 5.91 ± 0.74 nmol/mg of protein | 6.67 ± 0.79 nmol/mg of protein | 16.78 ± 2.11 |  |  |  |  | 
Nc1cnc2c(=O)n([C@@H]3O[C@H](CO)[C@@H](O)[C@H]3O)[nH]c(=O)c2n1.[Na] [Compound 21, sodium salt of 3-amino-7-(β-D-ribofuranosile)pyrazine[2,3-d]-6H-pyridazine-5,8-dione] |  |  |  |  |  |  |  |  |  |  |  |  |  |  |  |  | 11.4 ± 0.2 | 11.5 ± 0.1 | 11.3 ± 0.1 | 11.5 ± 0.2 | prothrombin time, T [3, 8]: 11.2 ± 0.1 s; prothrombin time, T [3, 9]: 11.2 ± 0.1 s; prothrombin time, T [3, 10]: 11.3 ± 0.2 s; prothrombin time, T [3, 11]: 11.2 ± 0.2 s; prothrombin time, T [3, 12]: 12.0 ± 0.2 s; prothrombin time, T [3, 13]: 11.8 ± 0.1 s; prothrombin time, T [3, 14]: 12.1 ± 0.1 s; prothrombin time, T [3, 15]: 12.0 ± 0.2 s; effect on the prothrombin time index [3]: have no effect on the prothrombin time index
